Laboratory results reported in patent US20260373497A1, “MOLECULAR MACHINES STIMULATE INTERCELLULAR CALCIUM WAVES AND CAUSE MUSCLE CONTRACTION” (William Marsh Rice University, priority 2022, published 2026).
Entries after “also recorded” stand apart in the source; their conditions may differ.

Columns and labels:
[1] = Extinction coefficient by UV-Vis; type: physicochemical; conditions: UV-Vis in spectral-grade water, 16 μM
Protocol: FIG. 13—Sample UV-Vis spectra of each MM taken at 16 μM in spectral-grade water.
(§1) Table 1. Properties of MM 1-4. Partition coefficients and total polar surface area were calculated using the molInspiration online calculator. milogP represents the logarithm of the partition coefficient between octanol and water, used to represent hydrophobicity (higher values are more hydrophobic). Rotation rates were provided using the thermodynamics of the thermal helix inversion step. MM structures provided for reference.

[2] = MM rotation rate (thermodynamics of the thermal helix inversion step); type: physicochemical; conditions: Table 1; from thermodynamics of thermal helix inversion
Protocol: as §1
Effects of Rotation Speed and Directionality: The propensity for unidirectional MM to rotate and exert mechanical force on their environment depend principally on two factors: the rotation rate and the photoconversion efficiency. Both of these depend on MM structure. The rotation rate is determined by the half-life of the thermal helix inversion, which is driven by the steric interactions governing the passage of the rotor over the stator (Pollard et al., 2007). The photoconversion efficiency, also known as the quantum yield of photoisomerization, or ΦP, represents the proportion of photons absorbed by the molecule that drive molecular rotation (as opposed to fluorescence or non-radiative decay processes). ΦP is primarily influenced by the electronic structure. MM directionality can also be influenced by structure, as the driving force for unidirectional rotation depends upon the presence of a stereogenic center.

HEK293 cells = assay: MM-induced intracellular calcium responses (Fluo-4) after 400 nm stimulation; type: cell-based
Protocol: To investigate cellular responses to the actuation of MM, live-cell calcium tracking were employed. HEK293 cells were treated with the fluorescent intracellular calcium indicator Fluo-4 and loaded with MM. The structures of the MM employed in this study are shown in FIG. 1B, and the calcium responses of cells treated with fast-rotating MM 1 are shown in FIG. 1C. […] In the presence of the vehicle only, no calcium responses were evoked by the same laser treatment (FIG. 2).
Cell Culture and Preparation of Cells for Microscopy: HEK293 cells were chosen as the principal model system due to their prevalence in electrophysiological interrogation. […] HEK293 cells, HeLa cells, and N2A cells were cultured in DMEM (10% FBS, 1% penicillin/streptomycin) and passaged at <90% confluence. To grow cardiomyocytes, a dissColved rat heart (TransnetYX©) was triturated, centrifuged, and resuspended in cardiomyocyte growth medium (TransnetYX© catalog #SKU-NBCG) and seeded at a concentration of 60,000 cells cm^−2. Growth substrates were pre-treated with 1% gelatin solution for 3 h, then washed with PBS. Cardiomyocytes were allowed to grow for 4 days, after which the growth medium was exchanged for cardiomyocyte maintenance medium (TransnetYX© catalog #SKU-NBCM). Experiments were conducted from day 4 to day 6.
Imaging was conducted in imaging extracellular buffer (iECB; 119 mM NaCl, 5 mM KCl, 10 mM HEPES, 2 mM CaCl2, 1 mM MgCl2 (pH 7.2); 320 mOsm). Imaging in calcium-free medium was conducted in phosphate-buffered saline. Cells were prepared for imaging by seeding a 35 mm Ibidi imaging dish with ~50,000 cells in 1 mL of DMEM, and grown at 37 °C, 5% CO2 for 2 days. Prior to imaging, cells were incubated with dyes and/or molecules resuspended in complete growth medium at the appropriate concentration (MM 1 (8 μM), MM 2 (8 μM), MM 3 (24 μM), MM 4 (8 μM), Fluo-4 (2 μM)). MM and Fluo-4 were loaded into cells for 45 min. Cells treated with thapsigargin were exposed for 30 min after MM and Fluo-4 loading. Cells treated with organelle-targeting dyes were exposed for 5 min after MM loading. Ruthenium red and Gd^3+ were included in the imaging medium during stimulation and were associated with cells for 10 min prior to imaging. At the end of incubation, this medium was replaced with the iECB. Unless otherwise specified, all experiments were replicated in triplicate.
In Vitro Imaging and Stimulation: Cells were loaded in a Nikon A1-Rsi confocal system mounted on a widefield Ti-E fluorescence microscope. Imaging was conducted using a 60× water immersion objective (NA of 1.27, 0.17 mm working distance). Green fluorophores (Fluo-4, MitoTracker Green) were excited using a 488 nm photodiode laser. Red fluorophores (ER-Tracker-Red, PI) were excited using a 561 nm photodiode laser. Deep red fluorophores (cellMask plasma membrane stain) were excited using a 630 nm photodiode laser. Laser stimulation for in vitro experiments was performed with a 400 nm photodiode laser (Coherent OBIS™ LX SF) operating in a fluorescence-recovery-after-photobleaching (FRAP) experiment mode, delivering up to 6.4×10^2 W cm^−2 at sample level. Unless otherwise specified, all experiments were conducted using a stimulus irradiance of 3.2×10^2 W cm^−2. Cardiomyocyte experiments were conducted using a stimulus irradiance of 5.1×10^2 W cm^−2. Power was calibrated using a Thor Labs S130C laser power meter. Stimulation was targeted to a circular area of diameter 5 μm in a 250 ms pulse, during which the laser rasters across the entire region of interest. […] Fluo-4 fluorescence was collected for 30 s before and 2 min after stimulation. Images were collected using a Galvano scanner operating at 0.94 fps. In selected experiments, images were also collected using a resonant scanner operating at 7.7 fps.
Data Analysis—In Vitro: Data were analyzed using custom-written Python scripts. Fluorescence traces of calcium indicator Fluo-4 from cells were imported and processed via the Pandas library. […]

[3] = 8 μM MM, 400 nm, 3.2×10^2 W cm^−2, 250 ms

CC1Cc2cc(NCCN(C)C)c3ccccc3c2C1=C1c2ccccc2-c2ccccc21 (stereo not drawn) [MM 3]
Extinction Coeff @ 400 nm [1]: ~7,500 L mol^−1cm^−1
Rotation rate [2]: 0.1 Hz
Intracellular calcium response (Fluo-4) (HEK293 cells; MM 3 at 24 μM, 6.4×10^2 W cm^−2): elicited no change in calcium activity upon irradiation; also recorded: did not elicit any noticeable responses in vitro

CC1Cc2ccc3ccccc3c2C1=C1c2ccccc2Sc2cc(NCCN(C)C)ccc21 (stereo not drawn) [MM 1]
Extinction Coeff @ 400 nm [1]: ~11,000 L mol^−1cm^−1
Rotation rate [2]: 3 × 10^6 Hz
Intracellular calcium response (Fluo-4) (HEK293 cells; [3]): increased Fluo-4 fluorescence in the targeted cell; also recorded: elicited rapid increases in intracellular calcium; also recorded: elicited the strongest signaling responses in vitro
Decay kinetics of calcium response (HEK293 cells; 8 μM, 400 nm light, 250 ms): decayed over the next minute
Time to peak of calcium transient after stimulation (HEK293 cells; 8 μM, 400 nm light, 250 ms): 10 to 20 s
Repeatability of calcium responses (HEK293 cells; 3.2×10^2 W cm^−2, 250 ms, multiple stimulations): repeatable
Light power dependence of calcium response (HEK293 cells; 250 ms pulse, 5 μm diameter): higher response amplitude at higher irradiance
Propagation of calcium response to adjacent cells (HEK293 cells; MM 1, 400 nm light): Calcium responses were observed to propagate to adjacent cells
Signal amplitude compared with other MM (HEK293 cells; MM 1 vs MM 2): reached a higher amplitude than those elicited by MM 2

CN(C)CCNc1ccc2c(c1)Sc1ccccc1C2=C1CCc2ccc3ccccc3c21 [MM 4]
Extinction Coeff @ 400 nm [1]: ~13,000 L mol^−1cm^−1
Rotation rate [2]: 3 × 10^6 Hz
Intracellular calcium response (Fluo-4) (HEK293 cells; [3]): elicited only small changes in calcium concentration; also recorded: elicited inconsistent and weak responses
